For one assay, the target named is T1, HDAC6 human recombinant (Homo sapiens, UniProt Q9UBN7).
T1 construct: purchased Calbiochem 382180
T1 sequence (Q9UBN7 1-1215): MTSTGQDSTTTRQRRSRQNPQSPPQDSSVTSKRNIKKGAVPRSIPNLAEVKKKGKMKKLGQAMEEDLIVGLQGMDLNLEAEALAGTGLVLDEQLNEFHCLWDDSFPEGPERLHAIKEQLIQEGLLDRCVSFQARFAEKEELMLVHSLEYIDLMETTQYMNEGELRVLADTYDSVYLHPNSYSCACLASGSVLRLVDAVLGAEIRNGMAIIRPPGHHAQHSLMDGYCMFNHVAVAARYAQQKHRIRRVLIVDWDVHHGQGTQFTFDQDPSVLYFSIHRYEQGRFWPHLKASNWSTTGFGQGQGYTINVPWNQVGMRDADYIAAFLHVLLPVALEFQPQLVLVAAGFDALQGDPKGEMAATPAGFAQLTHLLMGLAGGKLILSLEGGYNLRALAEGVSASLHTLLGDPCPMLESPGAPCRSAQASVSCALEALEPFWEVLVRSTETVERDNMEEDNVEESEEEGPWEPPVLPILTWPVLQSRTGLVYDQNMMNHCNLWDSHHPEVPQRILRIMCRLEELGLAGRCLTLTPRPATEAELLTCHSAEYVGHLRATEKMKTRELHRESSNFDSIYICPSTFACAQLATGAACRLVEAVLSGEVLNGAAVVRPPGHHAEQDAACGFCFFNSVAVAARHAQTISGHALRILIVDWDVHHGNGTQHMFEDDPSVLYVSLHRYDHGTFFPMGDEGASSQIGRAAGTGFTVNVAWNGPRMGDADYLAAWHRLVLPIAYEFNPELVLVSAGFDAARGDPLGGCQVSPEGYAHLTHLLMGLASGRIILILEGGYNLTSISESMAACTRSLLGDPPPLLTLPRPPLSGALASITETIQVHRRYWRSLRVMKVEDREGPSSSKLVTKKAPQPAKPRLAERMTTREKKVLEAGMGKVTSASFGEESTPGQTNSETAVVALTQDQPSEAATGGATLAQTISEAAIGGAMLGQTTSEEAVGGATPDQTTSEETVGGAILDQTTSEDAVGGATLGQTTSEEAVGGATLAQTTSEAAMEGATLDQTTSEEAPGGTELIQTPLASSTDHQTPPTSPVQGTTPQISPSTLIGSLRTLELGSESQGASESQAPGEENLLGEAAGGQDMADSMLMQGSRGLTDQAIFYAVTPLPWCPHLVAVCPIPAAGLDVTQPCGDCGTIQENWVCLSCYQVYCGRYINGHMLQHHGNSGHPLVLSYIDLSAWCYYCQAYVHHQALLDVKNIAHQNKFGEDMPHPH
The assay can be described thus: HDAC enzyme activity inhibition (in vitro), HDAC6 assay. The format is biochemical. Conditions: samples at 0.1, 1, 10, 100 and 1000 nM; 37° C. 60 minutes; fluorescence Ex 390, Em 460; read-out: HDAC6 IC50. The method, boiled down: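 Fluorescence (Ex 390, Em 460) read after a 37° C, 60 min enzyme reaction and a further 30 min developer step at 37° C. Uses recombinant human HDAC6; HDAC1 arm dosed at 100, 1000, 10000 nM.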

For the next assay, the target named is T2, HDAC1 (Homo sapiens, UniProt Q13547).
T2 construct: purchased Enzolifesciences BML-AK511
T2 sequence (Q13547 whole entry): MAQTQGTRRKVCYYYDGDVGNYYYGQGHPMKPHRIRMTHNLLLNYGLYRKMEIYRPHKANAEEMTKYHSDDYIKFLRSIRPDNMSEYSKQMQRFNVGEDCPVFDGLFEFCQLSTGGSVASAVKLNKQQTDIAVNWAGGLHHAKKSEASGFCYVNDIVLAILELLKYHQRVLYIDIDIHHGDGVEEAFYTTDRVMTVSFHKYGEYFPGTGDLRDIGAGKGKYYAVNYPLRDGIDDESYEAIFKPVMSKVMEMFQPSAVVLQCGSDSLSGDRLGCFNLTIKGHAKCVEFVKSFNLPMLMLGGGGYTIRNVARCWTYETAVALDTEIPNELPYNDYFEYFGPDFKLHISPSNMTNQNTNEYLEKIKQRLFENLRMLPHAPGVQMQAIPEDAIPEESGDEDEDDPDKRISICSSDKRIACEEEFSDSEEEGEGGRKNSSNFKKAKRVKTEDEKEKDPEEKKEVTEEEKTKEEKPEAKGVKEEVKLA
The assay can be described thus: HDAC enzyme activity inhibition (in vitro), HDAC1 Fluorimetric Drug Discovery Assay Kit. The format is biochemical. Conditions: samples at 100, 1000 and 10000 nM; 37° C. 60 minutes; fluorescence Ex 390, Em 460; read-out: HDAC1 IC50. The method, boiled down: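 Fluorimetric read-out (Ex 390, Em 460) after a 60 min 37° C enzyme reaction and 30 min 37° C developer step. Tested levels: 0.1-1000 nM (0.1, 1, 10, 100, 1000) on recombinant human HDAC6; 100, 1000 and 10000 nM on HDAC1 kit enzyme.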

Each structure is given as a SMILES string.

With `COC(=O)N1CCC(n2c(=O)n(Cc3ccc(-c4nnc(C(F)F)o4)cn3)c3cc(F)ccc32)CC1` [Compound 68, Methyl 4-(3-((5-(5-(difluoromethyl)-1,3,4-oxadiazole-2-yl)pyridine-2-yl)methyl)-5-fluoro-2-oxo-2,3-dihydro-1H-benzo[d]imidazole-1-yl)piperidine-1-carboxylate], the IC50 is 34 nM at HDAC6 human recombinant and over 10 µM on HDAC1.

Turning to `CN1CCC(n2c(=O)n(Cc3ccc(-c4nnc(C(F)F)o4)cc3F)c3cc(F)ccc32)CC1` [Compound 69, 3-(4-(5-(difluoromethyl)-1,3,4-oxadiazole-2-yl)-2-fluorobenzyl)-5-fluoro-1-(1-methylpiperidine-4-yl)-1,3-dihydro-2H-benzo[d]imidazole-2-one], the IC50 on HDAC6 human recombinant was 28 nM; on HDAC1, over 10 µM.

On to `CC(C)N1CCC(n2c(=O)n(Cc3ccc(-c4nnc(C(F)F)o4)cc3F)c3cc(F)ccc32)CC1` [Compound 70, 3-(4-(5-(difluoromethyl)-1,3,4-oxadiazole-2-yl)-2-fluorobenzyl)-5-fluoro-1-(1-isopropylpiperidine-4-yl)-1,3-dihydro-2H-benzo[d]imidazole-2-one], for which the IC50 on HDAC6 human recombinant was 31 nM; at HDAC1, over 10 µM.

In the case of `O=c1n(Cc2ccc(-c3nnc(C(F)F)o3)cc2F)c2cc(F)ccc2n1C1CCN(C2COC2)CC1` [Compound 71, 3-(4-(5-(difluoromethyl)-1,3,4-oxadiazole-2-yl)-2-fluorobenzyl)-5-fluoro-1-(1-(oxetan-3-yl)piperidine-4-yl)-1,3-dihydro-2H-benzo[d]imidazole-2-one], the concentration for half-maximal inhibition (IC50) on HDAC6 human recombinant is 19 nM; on HDAC1, over 10 µM.

On to `O=c1n(Cc2ccc(-c3nnc(C(F)F)o3)cc2F)c2cc(F)ccc2n1C1CCN(C2CCOCC2)CC1` [Compound 72, 3-(4-(5-(difluoromethyl)-1,3,4-oxadiazole-2-yl)-2-fluorobenzyl)-5-fluoro-1-(1-(tetrahydro-2H-pyran-4-yl)piperidine-4-yl)-1,3-dihydro-2H-benzo[d]imidazole-2-one], for which the IC50 at HDAC6 human recombinant is 26 nM; on HDAC1 it was over 10 µM.

Regarding `O=c1n(Cc2ccc(-c3nnc(C(F)F)o3)cc2F)c2cc(F)ccc2n1C1CCN(C2CCSCC2)CC1` [Compound 73, 3-(4-(5-(difluoromethyl)-1,3,4-oxadiazole-2-yl)-2-fluorobenzyl)-5-fluoro-1-(1-(tetrahydro-2H-thiopyran-4-yl)piperidine-4-yl)-1,3-dihydro-2H-benzo[d]imidazole-2-one], the IC50 at HDAC6 human recombinant is 80 nM; on HDAC1 it was over 10 µM.

As to `O=c1n(Cc2ccc(-c3nnc(C(F)F)o3)cc2F)c2cc(F)ccc2n1C1CCN(C2CCC2)CC1` [Compound 74, 1-(1-cyclobutylpiperidine-4-yl)-3-(4-(5-(difluoromethyl)-1,3,4-oxadiazole-2-yl)-2-fluorobenzyl)-5-fluoro-1,3-dihydro-2H-benzo[d]imidazole-2-one], the IC50 on HDAC6 human recombinant is 70 nM; on HDAC1 it was over 10 µM.

Consider `CC(=O)N1CCC(n2c(=O)n(Cc3ccc(-c4nnc(C(F)F)o4)cc3F)c3cc(F)ccc32)CC1` [Compound 75], for which the IC50 at HDAC6 human recombinant was 46 nM; at HDAC1 it was over 10 µM.

`CN1CCC(n2c(=O)n(Cc3ccc(-c4nnc(C(F)F)o4)cn3)c3c(F)cccc32)CC1` [Compound 76, 3-((5-(5-(difluoromethyl)-1,3,4-oxadiazole-2-yl)pyridine-2-yl)methyl)-4-fluoro-1-(1-methylpiperidine-4-yl)-1,3-dihydro-2H-benzo[d]imidazole-2-one]: the values for the IC50 at HDAC6 human recombinant and on HDAC1 were 31 nM and over 10 µM, respectively.

Turning to `O=c1n(Cc2ccc(-c3nnc(C(F)F)o3)cn2)c2c(F)cccc2n1C1CCN(C2COC2)CC1` [Compound 77, 3-((5-(5-(difluoromethyl)-1,3,4-oxadiazole-2-yl)pyridine-2-yl)methyl)-4-fluoro-1-(1-(oxetan-3-yl)piperidine-4-yl)-1,3-dihydro-2H-benzo[d]imidazole-2-one], the IC50 on HDAC6 human recombinant was 35 nM; on HDAC1 it was over 10 µM.

Consider `O=c1n(Cc2ccc(-c3nnc(C(F)F)o3)cn2)c2ccccc2n1C1CCN(C2COC2)CC1` [Compound 78, 1-((5-(5-(difluoromethyl)-1,3,4-oxadiazole-2-yl)pyridine-2-yl)methyl)-3-(1-(oxetan-3-yl)piperidine-4-yl)-1,3-dihydro-2H-benzo[d]imidazole-2-one], for which the IC50 on HDAC6 human recombinant is 79 nM; on HDAC1 it was over 10 µM.

As for `CN1CCC(n2c(=O)n(Cc3ccc(-c4nnc(C(F)F)o4)cc3)c3cc(F)ccc32)CC1` [Compound 79, 3-(4-(5-(difluoromethyl)-1,3,4-oxadiazole-2-yl)benzyl)-5-fluoro-1-(1-methylpiperidine-4-yl)-1,3-dihydro-2H-benzo[d]imidazole-2-one], the IC50 is 66 nM on HDAC6 human recombinant and over 10 µM on HDAC1.

For the compound `O=c1n(Cc2ccc(-c3nnc(C(F)F)o3)cc2)c2cc(F)ccc2n1C1CCN(C2COC2)CC1` [Compound 80, 3-(4-(5-(difluoromethyl)-1,3,4-oxadiazole-2-yl)benzyl)-5-fluoro-1-(1-(oxetan-3-yl)piperidine-4-yl)-1,3-dihydro-2H-benzo[d]imidazole-2-one], the IC50 on HDAC6 human recombinant is 61 nM; at HDAC1, over 10 µM.

Take `CN1CCC(n2c(=O)n(Cc3ccc(-c4nnc(C(F)F)o4)cn3)c3cc(Cl)c(Cl)cc32)CC1` [Compound 81, 5,6-dichloro-1-((5-(5-(difluoromethyl)-1,3,4-oxadiazole-2-yl)pyridine-2-yl)methyl)-3-(1-methylpiperidine-4-yl)-1,3-dihydro-2H-benzo[d]imidazole-2-one]: the figures for the half-inhibitory concentration (IC50) at HDAC6 human recombinant and at HDAC1 were 15 nM and over 10 µM, respectively.

In the case of `O=c1n(Cc2ccc(-c3nnc(C(F)F)o3)cn2)c2cc(Cl)c(Cl)cc2n1C1CCN(C2COC2)CC1` [Compound 82, 5,6-dichloro-1-((5-(5-(difluoromethyl)-1,3,4-oxadiazole-2-yl)pyridine-2-yl)methyl)-3-(1-(oxetan-3-yl)piperidine-4-yl)-1,3-dihydro-2H-benzo[d]imidazole-2-one], the values for the IC50 at HDAC6 human recombinant and on HDAC1 were 23 nM and over 10 µM, respectively.

For the compound `CN1CCC(n2c(=O)n(Cc3ccc(-c4nnc(C(F)F)o4)cn3)c3cc(F)c(F)cc32)CC1` [Compound 83, 1-((5-(5-(difluoromethyl)-1,3,4-oxadiazole-2-yl)pyridine-2-yl)methyl)-5,6-difluoro-3-(1-methylpiperidine-4-yl)-1,3-dihydro-2H-benzo[d]imidazole-2-one], the IC50 on HDAC6 human recombinant is 49 nM; at HDAC1 it was over 10 µM.

`O=c1n(Cc2ccc(-c3nnc(C(F)F)o3)cn2)c2cc(F)c(F)cc2n1C1CCN(C2COC2)CC1` [Compound 84, 1-((5-(5-(difluoromethyl)-1,3,4-oxadiazole-2-yl)pyridine-2-yl)methyl)-5,6-difluoro-3-(1-(oxetan-3-yl)piperidine-4-yl)-1,3-dihydro-2H-benzo[d]imidazole-2-one]: the IC50 at HDAC6 human recombinant was 36 nM; at HDAC1, over 10 µM.

Consider `CN1CCC(n2c(=O)n(Cc3ccc(-c4nnc(C(F)F)o4)cc3)c3cc(Cl)c(Cl)cc32)CC1` [Compound 85, 5,6-dichloro-1-(4-(5-(difluoromethyl)-1,3,4-oxadiazole-2-yl)benzyl)-3-(1-methylpiperidine-4-yl)-1,3-dihydro-2H-benzo[d]imidazole-2-one], for which the IC50 is 31 nM at HDAC6 human recombinant and over 10 µM on HDAC1.

For `O=c1n(Cc2ccc(-c3nnc(C(F)F)o3)cc2)c2cc(Cl)c(Cl)cc2n1C1CCN(C2COC2)CC1` [Compound 86, 5,6-dichloro-1-(4-(5-(difluoromethyl)-1,3,4-oxadiazole-2-yl)benzyl)-3-(1-(oxetan-3-yl)piperidine-4-yl)-1,3-dihydro-2H-benzo[d]imidazole-2-one], the results for the IC50 at HDAC6 human recombinant and on HDAC1 were 28 nM and over 10 µM, respectively.

In general, IC50 refers to the point on the concentration scale where inhibition reaches its midpoint.
